Test results published in ChEMBL document CHEMBL2086348, “Amide-based derivatives of β-alanine hydroxamic acid as histone deacetylase inhibitors: attenuation of potency through resonance effects” (Bioorg Med Chem Lett, 2012).

Molecular target: Histone deacetylase (Homo sapiens) (UniProt Q13547+O15379+Q9UBN7+Q92769+Q9UQL6+Q8WUI4+Q9BY41+Q96DB2+P56524+Q9UKV0+Q969S8)
Experiment: Inhibition of HDAC in human HeLa cell extracts at 1 uM
Assay type: protein assay
In the case of `O=C(/C=C/c1ccccc1)NCCC(=O)NO`, the inhibition is reported as 19%.

Tested on: not listed separately
Experiment: Antiproliferative activity against human BE(2)-C cells at 50 uM after 72 hrs by Alamar blue assay
Assay type: functional
Compound `O=C(CCNC(=O)Cc1ccc([N+](=O)[O-])cc1)NO` has an Activity of 87.9%. With `Cc1ccc(CCC(=O)NCCC(=O)NO)cc1` the Activity was 72.4%. Work on `CN(C)c1ccc(CC(=O)NCCC(=O)NO)cc1` yielded an Activity of 62.8%. With `CN(C)c1ccc(/C=C/C(=O)NCCC(=O)NO)cc1` the Activity was 57%. `Cc1ccc(OCC(=O)NCCC(=O)NO)cc1` gave an Activity of 80.4%. `O=C(/C=C/c1ccccc1)NCCC(=O)NO` showed an Activity of 88.6%.

Molecular target: T1, Histone deacetylase 1 (Homo sapiens, UniProt Q13547)
T1 sequence (Q13547 whole entry): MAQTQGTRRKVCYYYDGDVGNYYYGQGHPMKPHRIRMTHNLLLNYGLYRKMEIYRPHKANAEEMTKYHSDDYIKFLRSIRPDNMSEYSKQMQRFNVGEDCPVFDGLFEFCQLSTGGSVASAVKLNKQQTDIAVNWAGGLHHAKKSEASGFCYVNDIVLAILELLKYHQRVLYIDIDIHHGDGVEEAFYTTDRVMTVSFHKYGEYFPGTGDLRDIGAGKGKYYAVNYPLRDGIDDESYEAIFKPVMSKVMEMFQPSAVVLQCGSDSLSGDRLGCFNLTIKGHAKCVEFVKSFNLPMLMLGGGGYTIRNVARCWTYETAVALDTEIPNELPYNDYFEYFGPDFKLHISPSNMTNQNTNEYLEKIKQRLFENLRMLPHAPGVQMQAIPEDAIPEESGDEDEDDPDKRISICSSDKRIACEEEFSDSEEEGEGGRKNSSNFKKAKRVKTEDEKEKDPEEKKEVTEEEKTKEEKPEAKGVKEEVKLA
Experiment: Inhibition of HDAC1 by fluorometric assay
`O=C(CCNC(=O)Cc1ccc([N+](=O)[O-])cc1)NO` showed an IC50 of 39.4 µM. Compound `Cc1ccc(CCC(=O)NCCC(=O)NO)cc1` has an IC50 of 80 µM. Work on `CN(C)c1ccc(CC(=O)NCCC(=O)NO)cc1` yielded an IC50 of 38 µM. Compound `CN(C)c1ccc(/C=C/C(=O)NCCC(=O)NO)cc1` has an IC50 greater than 250 µM. `Cc1ccc(OCC(=O)NCCC(=O)NO)cc1` gave an IC50 of 84 µM. For `O=C(/C=C/c1ccccc1)NCCC(=O)NO`, the IC50 was 67 µM.

Molecular target: T1, Histone deacetylase 1
Experiment: Inhibition of HDAC1 at 250 uM by fluorometric assay
`CN(C)c1ccc(/C=C/C(=O)NCCC(=O)NO)cc1` gave an inhibition of 40%.

Tested on: not listed separately
Experiment: Antiproliferative activity against human BE(2)-C cells after 72 hrs by Alamar blue assay
Assay type: functional, cell-based
`CC(/C=C/C(=O)NO)=C\[C@@H](C)C(=O)c1ccc(N(C)C)cc1` [TRICHOSTATIN] gave an IC70 of 50 nM.
